# Measured values as given in ChEMBL document CHEMBL6153101, “Chamilactones A and B, Sesquiterpenes from the Endophytic Fungus Chaetomium nigricolor F5” (J Nat Prod, 2025).
# Activity calls are given as the source filed them. The calls are words filed in the database; no cut-off is given here.
# What was measured:
# Format in all cases: functional, cell-based
# BV-2 [1] = assay: Anti-neuroinflammatory effect in mouse BV-2 cells assessed as decrease in LPS-mediated TLR4 expression at 10 to 40 uM preincubated for 2 hrs followed by stimulation with LPS for 24 hrs by Western blot analysis; conditions: dose 10-40 µM, time 26.0 hrs
# BV-2 [2] = assay: Anti-neuroinflammatory effect in mouse BV-2 cells assessed as decrease in LPS-mediated p-p65 expression preincubated for 2 hrs followed by stimulation with LPS for 24 hrs by Western blot analysis; conditions: dose 10-40 µM, time 26.0 hrs
# BV-2 [3] = assay: Anti-neuroinflammatory effect in mouse BV-2 cells assessed as suppression of LPS-mediated TNF-alpha secretion preincubated for 2 hrs followed by stimulation with LPS for 24 hrs by ELISA assay; conditions: dose 10-40 µM, time 26.0 hrs
# BV-2 [4] = assay: Anti-neuroinflammatory effect in mouse BV-2 cells assessed as suppression of LPS-mediated IL-6 secretion preincubated for 2 hrs followed by stimulation with LPS for 24 hrs by ELISA assay; conditions: dose 10-40 µM, time 26.0 hrs
# BV-2 [5] = assay: Anti-neuroinflammatory effect in mouse BV-2 cells assessed as inhibition of LPS-mediated nuclear translocation of NF-kappaB p65 at 20 to 40 uM preincubated for 2 h followed by stimulation with LPS for 1 h by immunocytochemical analysis; conditions: dose 20-40 µM, time 3.0 hrs
structure (smiles),measurement,setting,value
Cc1c2c(cc3c1CCOC3=O)CC(C)(C)C2,Activity,BV-2 [1],Active
same,Activity,BV-2 [2],Dose-dependent-effect
same,Activity,BV-2 [3],Dose-dependent-effect; Exhibited Most Potent Effect
same,Activity,BV-2 [4],Dose-dependent-effect; Exhibited Most Potent Effect
same,inhibition,BV-2 [5],Active
